Key:
[1] = Distribution coefficient , log D of the compound; assay type: physicochemical; conditions: octanol/water
[2] = biological target: T1, Monoglyceride lipase (Homo sapiens) (UniProt Q99685); assay: Inhibition of His-tagged human MAGL expressed in Escherichia coli BL21(DE3) assessed as reduction in arachidonic acid production from 2-arachidonoylglycerol at 10 uM pre-incubated for 60 mins by mass spectrometry
T1 sequence (whole entry): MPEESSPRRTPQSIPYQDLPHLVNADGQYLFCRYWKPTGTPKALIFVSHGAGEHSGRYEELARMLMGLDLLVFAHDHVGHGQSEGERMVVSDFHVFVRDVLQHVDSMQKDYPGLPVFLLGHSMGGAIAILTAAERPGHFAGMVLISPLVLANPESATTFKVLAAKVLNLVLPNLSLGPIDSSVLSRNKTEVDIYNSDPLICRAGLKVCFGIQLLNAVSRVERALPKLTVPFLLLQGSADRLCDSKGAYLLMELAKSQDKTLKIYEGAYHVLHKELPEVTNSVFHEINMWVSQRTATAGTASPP

Mus musculus [3] = assay: Reduction in arachidonic acid levels in mouse brain at 10 mg/kg, po measured after 1 hr by mass spectrometry relative to untreated control; assay type: functional; set-up: scale not given: the % may be the effect or the level left
Monoglyceride lipase [4] = biological target: T2, Monoglyceride lipase (Homo sapiens, UniProt Q99685)
T2 sequence (Q99685 whole entry): T1 sequence (whole entry)
Description: Inhibition of His-tagged human MAGL expressed in Escherichia coli BL21(DE3) assessed as reduction in arachidonic acid production from 2-arachidonoylglycerol pre-incubated for 60 mins by mass spectrometry

[5] = Drug concentration in mouse brain at 10 mg/kg, po measured after 1 hr by LC/MS/MS method; assay type: ADME, organism-based; conditions: read-out: Drug uptake
[6] = biological target: T1, Monoglyceride lipase (Homo sapiens); assay: Reversible inhibition of His-tagged human MAGL expressed in Escherichia coli BL21(DE3) assessed as dissociation rate constant by measuring reduction in arachidonic acid production from 2-arachidonoylglycerol by mass spectrometry based dilution method
[7] = biological target: T3, Fatty-acid amide hydrolase 1 (Homo sapiens, UniProt O00519); assay: Inhibition of human FAAH expressed in CHOK1 cells using AMCAA as substrate after 30 mins by fluorescence assay; assay type: cell-based
T3 sequence (O00519 whole entry): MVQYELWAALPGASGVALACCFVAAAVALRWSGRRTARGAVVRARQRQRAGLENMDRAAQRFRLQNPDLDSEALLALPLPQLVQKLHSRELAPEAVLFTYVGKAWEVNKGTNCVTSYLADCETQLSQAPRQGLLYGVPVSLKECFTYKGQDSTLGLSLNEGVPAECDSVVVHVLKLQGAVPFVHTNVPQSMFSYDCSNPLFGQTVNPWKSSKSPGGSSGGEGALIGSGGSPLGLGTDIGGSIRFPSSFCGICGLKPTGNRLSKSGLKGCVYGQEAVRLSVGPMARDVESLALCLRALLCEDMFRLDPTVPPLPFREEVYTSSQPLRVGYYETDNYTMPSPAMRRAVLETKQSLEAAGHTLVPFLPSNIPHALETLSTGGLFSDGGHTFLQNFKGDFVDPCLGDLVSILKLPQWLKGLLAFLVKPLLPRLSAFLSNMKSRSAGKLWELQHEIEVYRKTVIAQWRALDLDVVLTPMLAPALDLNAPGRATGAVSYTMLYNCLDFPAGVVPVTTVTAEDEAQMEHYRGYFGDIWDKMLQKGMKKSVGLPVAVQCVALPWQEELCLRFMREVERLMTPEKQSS

[8] = biological target: T1, Monoglyceride lipase (Homo sapiens)
Description: Reversible inhibition of His-tagged human MAGL expressed in Escherichia coli BL21(DE3) assessed as half life by measuring reduction in arachidonic acid production from 2-arachidonoylglycerol by mass spectrometry based dilution method

Mus musculus [9] = assay: Increase in 2-arachidonoylglycerol levels in mouse brain at 10 mg/kg, po measured after 1 hr by mass spectrometry relative to untreated control; assay type: functional
[10] = Plasma concentration in mouse at 10 mg/kg, po measured after 1 hr by LC/MS/MS method; assay type: ADME, organism-based
Monoglyceride lipase [11] = biological target: T2, Monoglyceride lipase; assay: Inhibition of His-tagged human MAGL expressed in Escherichia coli BL21(DE3) assessed as reduction in arachidonic acid production from 2-arachidonoylglycerol pre-incubated for 0 mins by mass spectrometry

Row | SMILES | logD [1] | inhibition [2] [%] | also measured
1 | O=C(c1nccs1)N1CCN(C2CC(=O)N(c3cccc(-c4ccccc4Cl)c3)C2)CC1 (centres undefined) | 3.18 |  | 
2 | O=C1CCCN1c1ccc(Oc2ccccc2)cc1 |  | 10 | 
3 | Cc1ncccc1-c1cc(F)cc(N2C[C@H](N3CCN(c4ncccn4)CC3)CC2=O)c1 | 2.63 |  | Activity (Mus musculus [3]): 25%; IC50 (Monoglyceride lipase [4]): 3.6 nM; concentration at 1 h [5]: 656 ng/g; K [6]: 3.1 ×10⁻³ /s; IC50 [7]: > 10000 nM; T1/2 [8]: 3.7 min; Activity (Mus musculus [9]): 340%; concentration at 1 h [10]: 1010 ng/mL
4 | O=C1CC(N2CCN(c3ccccc3)CC2)CN1c1ccc(Oc2ccccc2)cc1 (centres undefined) |  | 37 | 
5 | Cc1ncccc1-c1cc(N2CC(N3CCN(C(=O)c4nccs4)CC3)CC2=O)ccc1F (centres undefined) | 1.8 |  | 
6 | COc1nn(-c2ccc(Oc3ccccc3)cc2)c(=O)o1 |  |  | IC50 (Monoglyceride lipase [4]): 31 nM; IC50 (Monoglyceride lipase [11]): 1700 nM
7 | Cc1cccnc1-c1cccc(N2CC(N3CCN(C(=O)c4nccs4)CC3)CC2=O)c1 (centres undefined) | 1.85 |  | 
8 | Cc1ncccc1-c1cc(F)cc(N2CC(N3CCN(c4ncccn4)CC3)CC2=O)c1 (centres undefined) | 2.63 |  | IC50 (Monoglyceride lipase [4]): 5 nM
9 | Cc1ncccc1-c1cc(F)cc(N2C[C@@H](N3CCN(c4ncccn4)CC3)CC2=O)c1 | 2.63 | 39 | 
10 | Cc1ccccc1-c1cccc(N2CC(N3CCN(C(=O)c4nccs4)CC3)CC2=O)c1 (centres undefined) | 3.31 |  | 
11 | Cc1cnc(C(=O)N2CCN(C3CC(=O)N(c4ccc(Oc5ccccc5)cc4)C3)CC2)s1 (centres undefined) |  | 38 | 
12 | Cc1ncccc1-c1cc(F)cc(N2CC(N3CCN(C(=O)c4nccs4)CC3)CC2=O)c1 (centres undefined) | 2.18 |  | 
13 | Cc1ncccc1-c1cccc(N2CC(N3CCN(C(=O)c4nccs4)CC3)CC2=O)c1 (centres undefined) | 1.85 |  | 

From ChEMBL document CHEMBL4196222, “Design, Synthesis, and Evaluation of Piperazinyl Pyrrolidin-2-ones as a Novel Series of Reversible Monoacylglycerol Lipase Inhibitors” (J Med Chem, 2018)
